Measurements reported in PubChem BioAssay (NCI).
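Where inhibition never reached the appropriate level, the endpoint shown equals the highest concentration tested. Otherwise, values were interpolated linearly from a five-concentration, 48-hour dose response in 96-well plates. TGI: concentration producing complete growth inhibition.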

Tests used:
Experiment in all cases: NCI-60 cell line screen, 48 h
U251 CNS = tested on: U251 CNS
EKVX NSCLC = tested on: EKVX NSCLC
NCI-H226 lung = tested on: NCI-H226 lung
SW-620 colon = tested on: SW-620 colon
HOP-62 NSCLC = tested on: HOP-62 NSCLC
HL-60(TB) leukemia = tested on: HL-60(TB) leukemia
A498 renal = tested on: A498 renal
SN12C renal = tested on: SN12C renal
M14 melanoma = tested on: M14 melanoma
T-47D breast = tested on: T-47D breast

| SMILES | TGI (U251 CNS) [µM] | TGI (EKVX NSCLC) [µM] | TGI (NCI-H226 lung) [µM] | TGI (SW-620 colon) [µM] | TGI (HOP-62 NSCLC) [µM] | TGI (HL-60(TB) leukemia) [µM] | TGI (A498 renal) [µM] | TGI (SN12C renal) [µM] | TGI (M14 melanoma) [µM] | TGI (T-47D breast) [µM] |
| --- | --- | --- | --- | --- | --- | --- | --- | --- | --- | --- |
| CC(=O)OC1CCC2(C)C(CCC3C2CCC2(C)C(c4ccc(=O)oc4)C(OC(C)=O)CC32O)C1 (centres undefined) | 0.137 | 0.0279 | 0.288 | 0.0593 | 0.0331 | 0.114 | 0.161 | 0.503 | – | – |
| O=C1OCc2nc3c(c(-c4ccccc4C(F)(F)F)c21)C(=O)OC3 | > 100 | > 100 | – | > 100 | > 100 | > 100 | > 100 | > 100 | > 100 | – |
| C/C(=C\COP(=O)(O)OP(=O)(O)O)CC/C=C(\C)CNc1c(F)c(F)c(F)c(F)c1F | > 100 | > 100 | > 100 | > 100 | > 100 | > 100 | – | > 100 | > 100 | > 100 |
| Cc1nc2nnc(CCCCCCCCc3nnc4nc(C)[nH]n34)n2[nH]1 | > 100 | > 100 | > 100 | > 100 | > 100 | > 100 | > 100 | > 100 | > 100 | – |
| CCC(C)C(NC(=O)c1cccc2c(=O)c3ccccc3[nH]c12)C(=O)O (centres undefined) | > 100 | > 100 | > 100 | > 100 | > 100 | – | > 100 | > 100 | > 100 | – |
| C#C[C@]1(O)CC[C@H]2[C@@H]3CCC4=C/C(=N/OC(=O)c5cccc6cc7ccccc7nc56)CC[C@@H]4[C@H]3CC[C@@]21CC | > 100 | – | > 100 | > 100 | > 100 | > 100 | > 100 | > 100 | > 100 | > 100 |
| Cc1cc2c3ccccc3n3c2c2c1OC1(C)CCC(C2C1)C3(C)C (centres undefined) | > 25 | – | > 25 | > 25 | > 25 | > 25 | – | > 25 | > 25 | – |
| O=C(CC(C(=O)c1ccsc1)c1cccs1)c1cccs1 (centres undefined) | > 100 | > 100 | > 100 | > 100 | > 100 | > 100 | > 100 | > 100 | > 100 | – |
| O=[N+]([O-])c1ccc(CSC2=C(c3ccc(Cl)cc3)S/C(=C3\SC(SCc4ccc([N+](=O)[O-])cc4)=C(c4ccc(Cl)cc4)S3)S2)cc1 | > 100 | > 100 | > 100 | > 100 | > 100 | – | > 100 | > 100 | > 100 | > 100 |
| c1cc(CSP234N5CCN2CCN3CCN4CC5)cc(CSP234N5CCN2CCN3CCN4CC5)c1 | 56.2 | > 100 | – | > 100 | > 100 | 28.1 | – | > 100 | 49 | > 100 |
| Cc1cc2nc3c(N)nn(CCCN(C)C)c3nc2cc1C | > 100 | > 100 | – | > 100 | > 100 | – | > 100 | > 100 | > 100 | > 100 |
| CCCCCCCC(=O)NC(C)(C)C(=O)NCC(=O)NC(CC(C)C)C(=O)NC(C)(C)C(=O)NCC(=O)NCC(=O)NC(CC(C)C)C(=O)NC(C)(C)C(=O)NCC(=O)NC(C(=O)NC(CO)CC(C)C)C(C)CC (centres undefined) | 5.33 | 6.91 | 8.48 | 9.28 | 8.12 | – | – | 7.7 | 7.62 | 7.23 |
| CCN(CC)C(=O)Cc1[nH][nH]c(=O)c1C(=O)N(CC)CC | > 100 | > 100 | > 100 | > 100 | > 100 | > 100 | > 100 | > 100 | > 100 | – |
| C(/C=C(\Nc1ccccc1)c1ccc2ccccc2c1)=Nc1ccccc1 | 8.66 | – | 5.64 | 17.3 | 7.05 | 11.8 | 25.8 | 5.15 | 6.14 | 12.9 |
| CCOC(=O)CN(CC)C(=O)NC12CC3CC(CC(C3)C1)C2 | > 536 | > 422 | 480 | > 750 | 602 | 348 | 413 | > 750 | – | – |
| Cc1c(CCCl)c(Cl)n2c(nc3ccccc32)c1C#N | 2.34 | 25.3 | 2.93 | 0.801 | 4.8 | 0.627 | 2.83 | 1.5 | 3.06 | – |
| O=C1C=C2SC3C[C@@]24CC1(O)[N+]1=c2c4c(c(O)c4c2=C(C=N4)CC1)N3 | 3.14 | 40.9 | 3.44 | 0.809 | 3.24 | 0.534 | 3.33 | 2 | – | – |
| C[N+]1(CC[N+]2(C)CCCC2c2cccnc2)CCCC1c1cccnc1 (centres undefined) | > 100 | 86.9 | – | > 100 | > 100 | – | > 100 | > 100 | > 100 | > 100 |
| O=C(Cn1c(=O)oc2ccccc21)N(c1ccccc1)c1ccccc1 | > 100 | > 100 | > 100 | > 100 | > 100 | > 100 | > 100 | > 100 | > 100 | – |
| C=CCSC1=N/C(=C\c2ccc(C)cc2)C(=O)N1CC=C | 57.1 | 34.1 | – | > 100 | > 100 | 28.1 | 51.8 | 28.2 | > 100 | 78.7 |
| Cc1n[nH]c(=O)c2c3c([nH]c12)-c1ccccc1C3 | > 100 | > 100 | > 100 | > 100 | > 100 | – | > 100 | > 100 | > 100 | > 100 |
| CCOC(=O)c1c(NS(=O)(=O)c2ccccc2)sc2c1CCCC2 | – | > 100 | > 100 | – | > 100 | > 100 | > 100 | > 100 | > 100 | > 100 |
| O=[N+]([O-])c1ccc(N=P(c2ccccc2)(c2ccccc2)c2ccccc2)n2nnnc12 | > 100 | > 100 | – | > 100 | 90.2 | > 100 | > 100 | > 100 | > 100 | – |
